Source: patent US8507464B2, “Phosphoramidate alkylator prodrugs” (Threshold Pharmaceuticals, Inc., priority 2005, dated 2013)
≈ marks a conversion by molar mass, not a printed value. Where two headings read alike, the source gives them in different places.

Experiments:
[1] = tested on: spheroids; assay: Spheroid combination with cisplatin or daunorubicin, clonogenic survival; format: cell-based, human; details: 2 h exposure, read-out: IC50 (μM), spheroids, cisplatin combination experiment
Procedure: The phosphoramidate alkylator prodrug was combined simultaneously with cisplatin or daunorubicin and the spreroids exposed for 2 h to the combination, followed by measurement of clonogenic survival.

[2] = tested on: HT29 xenograft; assay: HT-29 xenograft mouse model with CDDP (Example 52); format: in vivo; details: Group 2; tumor volumes at day 25; vs vehicle group; CDDP in saline IV alone
Procedure: Female CB17/SCID mice (purchased from Charles River, Cambridge, Mass.), 7-8 weeks of age, were allowed to acclimatize for at least three days, and handled under pathogen-free conditions. Human colon carcinoma cell line HT29 was obtained from the American Type Culture Collection. The cell lines were cultured and harvested as described in Example 47 and inoculated at 3×10^6 cells/animal in the peritoneal subcutaneous space. When the tumors grew to an average volume of 100 mm^3 (day 8), each group of mice (ten per group) was administered, for three weeks, as tabulated in the table below: Compound 25 in saline, administration route—i.p., administrated 2 h before CDDP on the days the combination therapy is scheduled and CDDP (in saline, IV).
The body weight and tumor volume were determined as described in Example 47. Data are based on tumor volumes at day 25 when tumors in the vehicle group had reached sufficient size to require that the mice be sacrificed.

[3] = tested on: H460 lung carcinoma spheroids; assay: Spheroid model, clonogenic survival; details: read-out: IC90 H460 Spheroid 10% O2
[4] = tested on: H460 cells exposed as monolayers; assay: Clonogenic survival of monolayer cells (Example 35)
[5] = tested on: NCI-H460 cells; assay: Antiproliferation assay - oxygen dependence; format: cell-based, human
From the text: . […] The calculated IC50 values (μM) are tabulated in Table Y1 (H460 cells) or Table Y2 (HT29 cells) below.

[6] = format: physicochemical; details: glassy carbon, Ag/AgCl reference
[7] = in vivo; details: Balb/c, mouse, 50 mg/kg
[8] = Plasma stability (Table 2B); details: 30 min
[9] = tested on: HT29; assay: Clonogenic assay, hypoxia vs normoxia (Table 1B); details: for IC90: Homo sapiens
[10] = tested on: NCI-H460 cells; assay: Antiproliferation assay (Alamar Blue), anoxia vs air; details: Homo sapiens, NCI-H460, 2 h
[11] = tested on: HT29 cells; assay: as above; details: Homo sapiens, HT-29, 2 h
[12] = tested on: MES-SA/Dx5 cells; assay: as above; details: Homo sapiens, MES-SA/Dx5, 2 h
[13] = tested on: H460 cell line; assay: Anti-proliferation assay, hypoxia vs normoxia (Table 1A); details: for IC50: Homo sapiens; for HCR P: ratio of IC50 in normoxia and hypoxia
[14] = tested on: HT29; assay: Anti-proliferation assay, hypoxia vs normoxia (Table 1B); details: for IC50: Homo sapiens
[15] = tested on: DX-5; assay: as above
[16] = tested on: human H460 cells; assay: Clonogenic survival assay, hypoxia vs normoxia (Table 1A); details: for IC90: Homo sapiens
[17] = Pharmacokinetics after intravenous or intraperitoneal administration in mice (Table 2B); details: plasma, 50 mg/kg
[18] = tested on: HT-29 human colon carcinoma xenograft; assay: HT-29 human colon carcinoma xenograft mouse model (Example 47); format: in vivo; details: Group 8: 5FU 10 mg/kg; vs vehicle
Procedure: Female CB17/SCID mice (purchased from Charles River, Cambridge, Mass.), 7-8 weeks of age, were allowed to acclimatize for at least three days, and handled under pathogen-free conditions. Human colon carcinoma cell line HT-29 was obtained from the American Type Culture Collection. The cell lines were cultured in RPMI 1640 media supplemented with 10% fetal bovine serum. Cells were maintained in a 37° C. incubator with 5% CO2. The HT-29 cells were harvested from culture and inoculated at 3×10^6 cells/animal in the peritoneal subcutaneous space. When the tumors grew to an average volume of 100 mm^3 (day 8), each group of 10 mice was administered, for three weeks, vehicle alone (saline and PEG (10 mL/kg each), Group 1), Compound 36 alone (dissolved in 30% cyclodextrin in PBS) at a daily dose of 20, 60, or 200 mg/kg (Groups 2, 3 and 4, respectively), and Compound 36 at a daily dose of 20, 60, and 200 mg/kg given 2-3 hours after a dose of 10 mg/kg of 5FU (in saline) (Group 5, 6 and 7, respectively) and compared to a group receiving only 5FU at 10 mg/kg (Group 8) as tabulated below.
The body weight of each mouse was recorded twice per week. Growth of each xenograft was monitored by externally measuring tumors in two dimensions using a digital caliper twice per week. Tumor volume (V) was determined by the following equation: V=(L×W^2)/2, where L is the length and W is the width of a xenograft. Tumor volumes were measured twice weekly.

[19] = Solubility in saline at room temperature; format: physicochemical; details: saline or isotonic
[20] = Homo sapiens, NCI-H460, read-out: IC50 in H460 cells, 0.6% O2
[21] = Homo sapiens, NCI-H460, read-out: IC50 in H460 cells, 1% O2
[22] = read-out: IC50 H460 Air, air, 2 h exposure
[23] = read-out: IC50 H460 Anoxia, anoxia, 2 h exposure
[24] = NCI-H460, read-out: Hypoxia P (proliferation IC50)
[25] = NCI-H460, read-out: Normoxia P (proliferation IC50)
[26] = CD-1, Balb/c for Compound 1, mouse, iv

Compound: N.N.[Cl][Pt][Cl] [Cisplatin, cis-Diaminedichloroplatinum (II), reference compound]
- IC50 [1]: 14 µM
- % Inhibition vs Group 1 [2]: 24.2%
- IC90 ([3]; 2 h exposure, 10% O2): 8 µM
- IC90 ([4]; read-out: IC90 H460 Monolayer 0.6% O2, 2 h exposure, 0.6% O2): 7.7 µM
- IC90 ([4]; read-out: IC90 H460 Monolayer Air, 2 h exposure, Air): 7.3 µM
- IC90 ([4]; read-out: IC90 H460 Monolayer N2, 2 h exposure, N2): 4.2 µM

Compound: Cn1c(COP(N)(=O)N(CCCl)CCCl)cnc1[N+](=O)[O-] (centres unmarked) [Compound 1]
- IC50 ([5]; Homo sapiens, NCI-H460, read-out: IC50 in H460 cells, 0.3% O2): 10 µM
- IC50 [5, 20]: 7 µM
- IC50 [5, 21]: 50 µM
- IC50 ([5]; Homo sapiens, NCI-H460, read-out: IC50 in H460 cells, Air): 100 µM
- IC50 ([5]; Homo sapiens, NCI-H460, read-out: IC50 in H460 cells, N2): 0.3 µM
- Reduction Potentials, 100 mV/sec ([6]; scan rate 100 mV/sec): −596 mV
- Reduction Potentials, 10,000 mV/sec ([6]; scan rate 10,000 mV/sec): −638 mV
- Cmax ([7]; ip): 29900 ng/mL
- Tmax ([7]; ip): 15 min
- AUC ([7]; iv): 12500 ng·h/mL
- Cmax ([7]; iv): 35000 ng/mL
- Tmax ([7]; iv): 5 min
- half-life ([7]; iv): 15.3 min
- Plasma stability (% at 30 min) [8]: 100%
- IC90 ([3]; Homo sapiens, NCI-H460, 2 h): > 100 µM
- HT29 HCR C [9]: >100
- IC90 ([9]; HT-29, read-out: HT29 C H (clonogenic IC90, hypoxia)): 0.4 µM
- IC90 ([9]; HT-29, read-out: HT29 C N (clonogenic IC90, normoxic)): 100 µM
- IC90 ([4]; Homo sapiens, NCI-H460, 2 h, read-out: IC90 H460 Monolayer Air): 75 µM
- IC90 ([4]; Homo sapiens, NCI-H460, 2 h, read-out: IC90 H460 Monolayer N2): 0.35 µM
- IC50 [10, 22]: 72 µM
- IC50 [10, 23]: 0.4 µM
- IC50 ([11]; read-out: IC50 HT29 Air): > 100 µM
- IC50 ([11]; read-out: IC50 HT29 Anoxia): 50 µM
- IC50 ([12]; read-out: IC50 MES-SA/Dx5 Air): > 100 µM
- IC50 ([12]; read-out: IC50 MES-SA/Dx5 Anoxia): 1 µM
- IC50 [13, 24]: 0.4 µM
- IC50 [13, 25]: 72 µM
- HCR P [13]: 180
- HT29 HCR P [14]: >2
- IC50 ([14]; HT-29, read-out: HT29 P H (proliferation IC50, hypoxia)): 50 µM
- IC50 ([14]; HT-29, read-out: HT29 P N (proliferation IC50, normoxic)): 100 µM
- DX-5 HCR [15]: >100
- IC50 ([15]; read-out: DX-5 P H (proliferation IC50, hypoxia)): 1 µM
- IC50 ([15]; read-out: DX-5 P N (proliferation IC50, normoxic)): > 100 µM
- IC90 ([16]; NCI-H460, read-out: Hypoxia C (clonogenic IC90)): 0.35 µM
- IC90 ([16]; NCI-H460, read-out: Normoxia C (clonogenic IC90)): 75 µM
- HCR C ([16]; ratio of IC90 in normoxia and hypoxia): 200
- Cmax ([17]; CD-1, Balb/c for Compound 1, mouse, ip): 29900 ng/mL
- AUC [17, 26]: 12500 ng·h/mL
- Cmax [17, 26]: 35000 ng/mL
- Vd [17, 26]: 1.48 L/kg
- half-life [17, 26]: 15.6 min
- half-life ([17]; mouse, ip): 15 min

Compound: O=c1[nH]cc(F)c(=O)[nH]1 [Compound 5FU, 5-fluoro-2,4(1H,3H)-pyrimidinedione, reference compound]
- % Inhibition vs Group 1 [18]: 38.7%

Compound: Cn1c([N+](=O)[O-])cnc1COP(=O)(NCCCl)NCCCl [Compound 10]
- solubility [19]: 10000 µg/mL (≈ 27.8 mM)
- IC50 ([5]; Homo sapiens, NCI-H460, read-out: IC50 in H460 cells, 0.1% O2): > 100 µM
- IC50 [5, 20]: > 100 µM
- IC50 [5, 21]: > 100 µM
- IC50 ([5]; Homo sapiens, NCI-H460; read-out: IC50 in H460 cells, Air): > 100 µM
- IC50 ([5]; Homo sapiens, NCI-H460; read-out: IC50 in H460 cells, N2): > 100 µM
- IC50 [10, 22]: > 100 µM
- IC50 [10, 23]: ≥ 100 µM
- IC50 [13, 24]: 100 µM
- IC50 [13, 25]: > 100 µM
- HCR P [13]: >1
